The assay deals with T1, recombinant human PAI-1 (Homo sapiens, UniProt P05121).
T1 construct: purchased Molecular Innovations, Inc
As to the kind of experiment: Test Example 2: human PAI-1 inhibitory activity (tPA fluorogenic substrate, pH 7.4 HEPES buffer). The settings on record: human PAI-1. Type of assay: biochemical. On the procedure: 0.1 M HEPES, 0.1 M NaCl. 1 mM EDTA. 0.1% Polyethylene glycol 8,000 (Hampton Research Corporation),
2 mM Dimethyldecylphoshine oxide [Apo-10] (Fluka Corporation)

Where [1] appears, read: compound concentration 0.1 μM, 0.1 µM.
Where [2] appears, read: compound concentration 0.3 μM, 0.3 µM.
[3] abbreviates: compound concentration 1 μM, 1 µM.
Where [4] appears, read: compound concentration 3 μM, 3 µM.

Some results are limits rather than exact numbers.

T1 sequence (P05121 24-402): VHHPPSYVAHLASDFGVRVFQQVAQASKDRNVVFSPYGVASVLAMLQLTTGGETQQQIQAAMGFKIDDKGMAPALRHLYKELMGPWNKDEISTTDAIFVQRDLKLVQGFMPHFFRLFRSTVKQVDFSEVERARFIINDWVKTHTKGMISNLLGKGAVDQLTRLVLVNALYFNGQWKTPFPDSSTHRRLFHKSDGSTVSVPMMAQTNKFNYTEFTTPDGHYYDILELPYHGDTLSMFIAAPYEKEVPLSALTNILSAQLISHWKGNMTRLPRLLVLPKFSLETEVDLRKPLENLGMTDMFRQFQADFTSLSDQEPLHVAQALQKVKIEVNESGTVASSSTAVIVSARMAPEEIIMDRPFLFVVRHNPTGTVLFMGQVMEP

`CCCCCOc1ccc(-c2ccc(OC(F)(F)F)cc2)cc1N(CCCOCc1ccccc1)C(=O)C(=O)O` [Compound 655]: the “Inhibition Rate of PAI-1 Activity (%)” value (compound concentration 0.1 μM) is 3%, the “Inhibition Rate of PAI-1 Activity (%)” value (compound concentration 0.3 μM) came to 0%, the “Inhibition Rate of PAI-1 Activity (%)” value (compound concentration 1 μM) was 44% and the “Inhibition Rate of PAI-1 Activity (%)” value (compound concentration 3 μM) worked out at 97%.
In the case of `O=C(O)C(=O)N(CCCCc1ccccc1)c1cc(-c2ccc(OC(F)(F)F)cc2)ccc1OCCCC1CCCCC1` [Compound 656], the “Inhibition Rate of PAI-1 Activity (%)” value is 24% (compound concentration 0.1 μM), 64% (compound concentration 0.3 μM), 95% (compound concentration 1 μM) and 88% (compound concentration 3 μM).
As for `CCCCCN(C(=O)C(=O)O)c1cc(-c2ccc(OC(F)(F)F)cc2)ccc1OCCCOc1ccccc1` [Compound 657], the “Inhibition Rate of PAI-1 Activity (%)” value reads like this: (compound concentration 0.1 μM) 15%; (compound concentration 0.3 μM) 20%; (compound concentration 1 μM) 99%; (compound concentration 3 μM) above 99%.
The corresponding values for `O=C(O)C(=O)N(CCCCc1ccccc1)c1cc(-c2ccc(OC(F)(F)F)cc2)ccc1OC1CCCC1` [Compound 658] are 9%, 20%, 97% and above 99%.
The corresponding values for `O=C(O)C(=O)N(CCCCc1ccccc1)c1cc(-c2ccc(OC(F)(F)F)cc2)ccc1OC1CCCCCC1` [Compound 659] are 12%, 26%, above 99% and 96%.
Turning to `O=C(O)C(=O)N(Cc1ccc2ccccc2c1)c1ccc(-c2ccc(OC(F)(F)F)cc2)cc1` [Compound 661], the “Inhibition Rate of PAI-1 Activity (%)” value (compound concentration 0.1 μM) came out at 6%, the “Inhibition Rate of PAI-1 Activity (%)” value (compound concentration 0.3 μM) is given as 11%, the “Inhibition Rate of PAI-1 Activity (%)” value (compound concentration 1 μM) is listed as 27% and the “Inhibition Rate of PAI-1 Activity (%)” value (compound concentration 3 μM) was above 99%.
On the same counts, the results for `Cc1cc(C)cc(COc2ccc(-c3ccc(OC(F)(F)F)cc3)cc2N(CCCCc2ccccc2)C(=O)C(=O)O)c1` [Compound 662] are 18%, 28%, 98% and 95%.
On to `CC(C)(C)C1CCC(N(C(=O)C(=O)O)c2ccc(-c3ccc(OC(F)(F)F)cc3)cc2)CC1` (stereo not drawn) [Compound 665], for which the “Inhibition Rate of PAI-1 Activity (%)” value by setting is: under setting [1], 9%; under setting [2], 8%; under setting [3], 67%; under setting [4], above 99%.
The corresponding values for `CC(C)(C)C1CCC(N(C(=O)C(=O)O)c2ccc(-c3ccc(OC(F)(F)F)cc3)cc2)CC1` (stereo not drawn) [Compound 666] are 0%, 21%, 89% and 98%.
`CCCCCCCCCCN(C(=O)C(=O)O)c1ccc(-c2ccc(OC(F)(F)F)cc2)cc1` [Compound 669]: the “Inhibition Rate of PAI-1 Activity (%)” value runs as follows: (compound concentration 0.1 μM) 28%; (compound concentration 0.3 μM) 34%; (compound concentration 1 μM) above 99%; (compound concentration 3 μM) above 99%.
Turning to `CCCCCOc1ccc(-c2ccc(OC(F)(F)F)cc2)cc1N(CCCCc1cc(C)ccc1C)C(=O)C(=O)O` [Compound 670], the “Inhibition Rate of PAI-1 Activity (%)” value is 6% (compound concentration 0.1 μM), 55% (compound concentration 0.3 μM), 97% (compound concentration 1 μM) and 94% (compound concentration 3 μM).
Consider `O=C(O)C(=O)N(CCCCc1ccccc1)c1ccc(-c2ccc3ccccc3c2)cc1` [Compound 671], for which the “Inhibition Rate of PAI-1 Activity (%)” value came out at 26% (compound concentration 0.1 μM), 12% (compound concentration 0.3 μM), 23% (compound concentration 1 μM) and 92% (compound concentration 3 μM).

(Values after patent US8633245B2, “PAI-1 inhibitor” (Institute of Medicinal Molecular Design, Inc., priority 2008, dated 2014).)
